For series [1], the system named is EBOV-GP-pseudotyped virus (pEBOV). Nature of the series: microbe, parasite or virus in culture. As to conditions: Zaire ebolavirus, Vero C1008, read-out: %inh@10 μM (pEBOV).
Another series can be described thus: in vitro. As to conditions: chlorocebus sabaeus.
Series [2] relates to EBOV-GP-pseudotyped virus (pEBOV).
Series [3] concerns VSV-G-pseudotype virus (pVSV-G). Nature of the series: microbe, parasite or virus in culture. The series is classed as cell-based. As to conditions: Vesicular stomatitis virus, read-out: %inh@10µM (pVSV-G).

This note sets out measurements from PMC11440591 (Journal of Medicinal Chemistry, 2024).

Where only a bound is given, the exact number is not on record here.

For the molecule `O=C(Nc1ccccc1)c1ccc(-c2ccccc2)s1` [compound 2], the inhibition at 10 µM in series [1] was below 75%. In the series “in vitro”, this molecule gave a CC50 above 100 µM.

For `O=C(Nc1ccc(Cl)cc1)c1ccc(-c2ccccc2)s1` [compound 3], the inhibition at 10 µM in series [1] is below 75%. Moreover, the CC50 in “in vitro” is above 100 µM.

Consider `O=C(Nc1ccc(N2CCOCC2)cc1)c1ccc(-c2ccccc2)s1` [compound 6], for which the inhibition at 10 µM in series [1] was below 75%. In “in vitro”, the CC50 was above 100 µM.

On to `O=C(NCCC1CCN(Cc2ccccc2)CC1)c1ccc(-c2ccccc2)s1` [compound 7], for which, in series [1], the inhibition at 10 µM was below 75%. This molecule had a CC50 in the series “in vitro” above 100 µM.

For `O=C(c1ccc(-c2ccccc2)s1)N1CCCC1` [compound 8], in series [1], the inhibition at 10 µM was below 75%. The molecule also had a CC50 in “in vitro” above 100 µM.

On to `O=C(Nc1ccccc1)c1ccc(-c2ccccc2O)s1` [compound 16], for which the inhibition at 10 µM in series [1] was -36%. Moreover, the CC50 in the series “in vitro” is above 100 µM.

For the molecule `O=C(Nc1ccc(Cl)cc1)c1ccc(-c2ccccc2O)s1` [compound 17], in series [1], the inhibition at 10 µM was -19%. This molecule registered a CC50 in “in vitro” above 100 µM.

With `O=C(Nc1cccc(Cl)c1)c1ccc(-c2ccccc2O)s1` [compound 18], the inhibition at 10 µM in series [1] is -35%. This molecule showed a CC50 in “in vitro” above 100 µM.

As for `O=C(NCCc1ccccc1)c1ccc(-c2ccccc2O)s1` [compound 19], in series [1], the inhibition at 10 µM was -22%. In “in vitro”, the CC50 was above 100 µM.

For `O=C(Nc1ccc(N2CCOCC2)cc1)c1ccc(-c2ccccc2O)s1` [compound 20], the inhibition at 10 µM in series [1] was -23%. In the series “in vitro”, this molecule yielded a CC50 above 100 µM.

For `O=C(NCCC1CCN(Cc2ccccc2)CC1)c1ccc(-c2ccccc2O)s1` [compound 21], the inhibition at 10 µM in series [1] is -22%. Besides, the CC50 at 24 h in “in vitro” turned out to be 70 µM.

As to `O=C(c1ccc(-c2ccccc2O)s1)N1CCCC1` [compound 22], in series [1], the inhibition at 10 µM is 0%. The same molecule yielded a CC50 in the series “in vitro” above 200 µM.

As for `O=C(Nc1ccc(Cl)cc1)c1ccc(-c2cccc(O)c2)s1` [compound 24], the inhibition at 10 µM in series [1] amounted to 16%. This molecule came in with a CC50 in the series “in vitro” above 200 µM.

`O=C(Nc1cccc(Cl)c1)c1ccc(-c2cccc(O)c2)s1` [compound 25]: in series [1], the inhibition at 10 µM is -20%. This molecule also had a CC50 in “in vitro” above 200 µM.

On to `O=C(NCCc1ccccc1)c1ccc(-c2cccc(O)c2)s1` [compound 26], for which, in series [1], the inhibition at 10 µM was 10%. Moreover, the CC50 in the series “in vitro” was above 200 µM.

For `O=C(Nc1ccc(Cl)cc1)c1ccc(-c2ccc(O)cc2)s1` [compound 28], in series [1], the inhibition at 10 µM was 46%. For the same molecule, the CC50 in “in vitro” is above 200 µM.

With `O=C(Nc1cccc(Cl)c1)c1ccc(-c2ccc(O)cc2)s1` [compound 29], in series [1], the inhibition at 10 µM is 27%. In addition, the CC50 in “in vitro” is above 200 µM.

On to `O=C(NCCc1ccccc1)c1ccc(-c2ccc(O)cc2)s1` [compound 30], for which, in series [1], the inhibition at 10 µM was -63%. The CC50 in “in vitro” was above 200 µM.

As to `O=C(NCCC1CCN(Cc2ccccc2)CC1)c1ccc(-c2ccc(O)cc2)s1` [compound 31], in series [1], the inhibition at 10 µM came to 41%. In “in vitro”, this molecule showed a CC50 above 100 µM.

For `CC(C)(C)OC(=O)N1CCC(Oc2cccc(-c3ccc(C(=O)Nc4ccccc4)s3)c2)CC1` [compound 39, tert-butyl 4-(3-(5-(phenylcarbamoyl)thiophen-2-yl)phenoxy)piperidine-1-carboxylate], the “antiviral activity against pEBOV (in words)” value in series [2] is reported as “complete loss of activity”. Also, in series [1], the inhibition at 10 µM was determined as 38%.

Turning to `O=C(Nc1ccccc1)c1cnc(-c2ccc(OC3CCNCC3)cc2)s1` [compound 78, N-Phenyl-2-(4-(piperidin-4-yloxy)phenyl)thiazole-5-carboxamide], the inhibition at 10 µM in series [3] is -32%; in series [1], -96%. Besides, the CC50 at 24 h in “in vitro” amounted to 50 µM.

Turning to `O=C(Nc1ccccc1)c1cnc(-c2cccc(OC3CCNCC3)c2)s1` [compound 98, N-Phenyl-2-(3-(piperidin-4-yloxy)phenyl)thiazole-5-carboxamide], the inhibition at 10 µM in series [3] is -18%; in series [1] it was -8%.
